# Laboratory results published in US8546382B2, “Methods for enhancing hematopoietic progenitor cell engraftment” (Children's Medical Center Corporation, priority 2009, dated 2013).
# Entries after “also recorded” stand apart in the source; their conditions may differ.
# Assays:
# [1] = test system: bone marrow adipocyte formation; conditions: in vitro and in vivo in models of streptozotocin-induced diabetes; cited from earlier work
# [2] = test system: wild-type female FVB mice; assay: BM transplantation in lethally irradiated wild-type mice with daily BADGE; format: in vivo, mouse
# Description: BM transplants were performed in wild-type female FVB mice as described for FIG. 2 except that 30 mg/kg BADGE or control vehicle (DMSO 10%) were administered through daily intra-peritoneal injections from the day prior to irradiation until day 14 post-transplant. 4a. […] 4b. Colony forming unit assay (CFU) from the recovered donor BM.
# Finally, it was tested whether pharmacologic antagonism of adipogenesis could enhance bone marrow engraftment in wild-type mice.
# Thorax, tibias and tails for homeostasis studies were isolated from wildtype C57BL6/J mice. When BM transplantation was performed, B6.SJL-Ptprca Pep3b/BoyJ were used as donors to take advantage of the CD45.1/CD45.2 allelic system (Jackson Laboratories #0002014). Bone marrow transplantation and CFU-Spleen assays were performed on lethally irradiated mice (two 5.5Gy doses separated by 3 hrs) and cells were administered by tail vein injection within 24 hrs of lethal irradiation. For competitive transplantation, samples were competed against 250,000 recipient-matched competitor femoral bone marrow. FVB wildtype litter-mates mice were used as controls for FVB.A-ZIP/F1 fatless mice. During BM transplantation assays FVB or FVB.A-ZIP/F1 mice (CD45.1) received 200,000 MHC-matched (H^q) wildtype BM from DBA/1J mice (CD45.2). Secondary transplants were performed through recovery of the CD45.2 […] BM passed through the FVB wildtype or FVB.A-ZIP/F1 microenvironment, which was then transplanted into FVB (CD45.1) recipients together with 250,000 FVB (CD45.1) wildtype competitor BM cells. For pharmacological inhibition of adipocyte formation, BM transplants were performed in wild-type female FVB mice as described above, except that 30 mg/kg BADGE or control vehicle (DMSO 10%) were administered in daily intraperitoneal injections starting one day prior to irradiation and continuing until day 14 post-transplant. Solutions were made such that 500 mg BADGE (Fluka) was resuspended in 8.3 ml DMSO (Sigma) and diluted in PBS to a final concentration of 10% DMSO for administration at 30 mg/kg in 100 ul. Aliquots were stored at −20° C. and thawed daily. Multicolor flow cytometry was performed in a special order BD five-laser LSRII flow cytometer. Cell cycle analysis was performed with DAPI (Sigma) in cells fixed in 2% paraformaldehyde for 15 min at 4° C. For all statistical analysis an un-paired two-tailed Student's t-test was performed assuming experimental samples of equal variance. […]
# Mice were lethally irradiated with 11-12Gy on a split dose separated by 2.5 h and BM transplants were performed within 24 h by tail-vein injection. Engraftment was measured monthly through eye bleed and FACS analysis with CD45.1-FITC (eBiosciences), CD45.2-PE or CD45.2-biotin, CD3-PE, CD19-PE, Mac-1-PE. […]
# [3] = test system: Wildtype BM; assay: Colony forming unit (CFU) assay of wildtype BM plated with BADGE in vitro; format: cell-based, mouse; conditions: BADGE 30 mg/kg vs DMSO vehicle control (0.5 μL/mL); after 8-10 days
# Description: 14a. Wildtype BM was plated in the presence of BADGE 30 mg/kg, or DMSO vehicle control (0.5 μL/mL).
# Colony forming unit (CFU) assays were performed in complete M3434 methylcellulose (Stem Cell Technologies) following the manufacturer's instructions. Colonies were scored on day 8-10 on coded plates for unbiased counts.
# [4] = test system: whole bone marrow collected from the DBA/1J mouse strain; assay: Hematopoietic colony formation in methylcellulose (M3434) in the presence of PPAR gamma inhibitors; format: cell-based; conditions: 3 ml M3434 with 1.5 μL of working concentration of each compound; N=2
# Description: Progenitor activity was measured by formation of hematopoietic colonies in methylcellulose (M3434) from whole bone marrow collected from the DBA/1J mouse strain. Cells were plated in 3 ml M3434 along with 1.5 μL of the working concentration of each compound.
# [5] = test system: patients; conditions: patients treated with the PPARγ agonist; cited from earlier work
smiles,measurement,setting,value
"CC(C)(c1ccc(OCC2CO2)cc1)c1ccc(OCC2CO2)cc1 (centres unmarked) [BADGE, Bisphenol-A-DiGlycidyl-Ether]",Bone marrow adipocyte formation,[1],prevent bone marrow adipocyte formation
same,White blood cell (WBC) / leukocyte counts in peripheral blood in the post-transplant period,"[2]; 30 mg/kg BADGE daily i.p. from day prior to irradiation until day 14 post-transplant, vs vehicle (DMSO 10%)",Higher peripheral blood leukocyte counts; also recorded: accelerated recovery
same,Colony forming units (CFU) from the recovered donor BM,"[2]; 30 mg/kg BADGE daily i.p., donor CD45.2 BM recovered day 17 post-transplant",enrichment in colony forming units
same,BM adipocyte formation by H&E staining of femurs,"[2]; BADGE for two weeks following BM transplantation, mice sacrificed day 17 post-transplant",successful inhibition of BM adipocyte formation
same,Hematopoietic recovery after BM transplant,[2]; pharmacologic inhibition of adipocyte formation with BADGE,enhances hematopoietic recovery
same,Ability to form CFUs (hematopoietic colony formation) in vitro,[3],does not enhance hematopoietic colony formation; also recorded: No difference
"O=C(Nc1ccncc1)c1cc([N+](=O)[O-])ccc1Cl [T0070907, 2-chloro-5-nitro-N-4-pyridinyl-benzamide]",Number of hematopoietic colonies relative to vehicle control,[4],fewer colonies relative to the vehicle control
CN(CCOc1ccc(CC2SC(=O)NC2=O)cc1)c1ccccn1 (centres unmarked) [rosiglitazone],Adverse haematological effect in treated patients,[5],myelosuppression
